Activity calls are given as the source filed them. The calls are words filed in the database; no cut-off is given here.

Our source for the IC50 and Activity values is ChEMBL document CHEMBL2029340 (J Med Chem, 2012).

Experiment [1] has as its system Influenza A virus. Briefly: Antiviral activity against amantidine-resistant Influenza A virus A/WSN/33(H1N1) infected in MDCK cells assessed as inhibition of virus-induced cytopathic effects after 3 days by CCK-8 assay. Conditions: A/WSN/1933(H1N1), 72 h. The experiment is classed as functional, organism-based. On the technique in general: Damage to the host cells serves as the signal in cytopathic effect assays.

Experiment [2] has as its system Influenza A virus. As to the kind of experiment: Antiviral activity against Influenza A virus A/WSN/1933 (H1N1) harboring nucleoprotein 52H mutant infected in MDCK cells assessed as reduction of nucleoprotein antigen level after 3 days. The experiment is classed as functional, organism-based.
For experiment [3], the system named is Influenza A virus. Briefly: Antiviral activity against amantidine-resistant Influenza A virus A/WSN/33(H1N1) infected in MDCK cells assessed as reduction in plaque formation after 3 days by microplate counting of infectious particles assay. The experiment is classed as functional, organism-based. Conditions: A/WSN/1933(H1N1), 72 h.
The test system of experiment [4] is Influenza A virus. Briefly: Antiviral activity against amantidine-resistant Influenza A virus A/WSN/33(H1N1) infected in MDCK cells assessed as reduction in plaque formation at 0.3 uM after 3 days by microscopy. The class given is functional, organism-based. The conditions noted are these: A/WSN/1933(H1N1).
Experiment [5] has as its system Influenza A virus. Briefly: Antiviral activity against Influenza A virus A/WSN/1933 (H1N1) harboring wild type nucleoprotein 52Y infected in MDCK cells assessed as reduction of nucleoprotein antigen level after 3 days. The experiment is classed as functional, organism-based. The conditions noted are these: 72 h.
The test system of experiment [6] is Influenza A virus. Briefly: Antiviral activity against amantidine-resistant Influenza A virus A/WSN/33(H1N1) infected in MDCK cells assessed as reduction in plaque formation after 3 days by microscopy. The conditions noted are these: A/WSN/1933(H1N1). The experiment is classed as functional, organism-based.
The subject of experiment [7] is Influenza A virus. As to the kind of experiment: Antiviral activity against tamiflu-resistant Influenza A virus A/WSN/33 (H1N1) harboring neuraminidase 274Y mutant infected in MDCK cells assessed as reduction of nucleoprotein antigen level after 3 days. The class given is functional, organism-based, A/WSN/1933(H1N1).
Experiment [8] concerns Influenza A virus. As to the kind of experiment: Antiviral activity against amantidine-resistant Influenza A virus A/WSN/33(H1N1) infected in MDCK cells assessed as reduction in plaque formation at 1 uM after 3 days by microscopy. The class given is functional, organism-based. Conditions: A/WSN/1933(H1N1).

For the molecule `COc1ccccc1-n1nnc(C)c1C(=O)N1CCN(c2ccccc2Cl)CC1`, the IC50 (in general, the concentration that gives 50% inhibition) in the experiment on Influenza A virus [1] was 48.1 µM. Turning to `Cc1nnn(-c2ccccc2O)c1C(=O)N1CCN(c2ccc([N+](=O)[O-])cc2Cl)CC1`, in the experiment on Influenza A virus [1], the half-maximal inhibitory concentration (IC50) came to 1.58 µM. Take `COc1ccccc1-n1nnc(C)c1C(=O)N1CCCN(c2ccc([N+](=O)[O-])cc2Cl)CC1`: the concentration for half-maximal inhibition (IC50) in the experiment with Influenza A virus [1] turned out to be 35.5 µM. Take `COc1cc([N+](=O)[O-])ccc1N1CCN(C(=O)c2c(C)nnn2-c2ccccc2OC)CC1`: in the experiment with Influenza A virus [1], the half-inhibitory concentration (IC50) was over 50 µM. In the case of `CCOc1ccccc1-n1nnc(C)c1C(=O)N1CCN(c2ccc([N+](=O)[O-])cc2Cl)CC1`, in the experiment with Influenza A virus [1], the IC50 was found to be 3.22 µM. As to `COc1ccc(-n2nnc(C)c2C(=O)N2CCN(c3ccc([N+](=O)[O-])cc3Cl)CC2)cc1`, in the experiment on Influenza A virus [1], the half-inhibitory concentration (IC50) came to 5.61 µM. Turning to `COc1cccc(OC)c1-n1nnc(C)c1C(=O)N1CCN(c2ccc([N+](=O)[O-])cc2Cl)CC1`, the concentration for half-maximal inhibition (IC50) with Influenza A virus [1] was 1.34 µM. On to `Cc1onc(-c2ccccc2)c1C(=O)N1CCN(c2ccc([N+](=O)[O-])cc2Cl)CC1` [NUCLEOZIN], for which the half-inhibitory concentration (IC50) in the experiment on Influenza A virus [2] was over 50 µM; in the experiment on Influenza A virus [3] it was 0.1 µM; in the experiment with Influenza A virus [5], 0.49 µM; in the experiment on Influenza A virus [7], 0.66 µM; in the experiment on Influenza A virus [1], 0.32 µM. Further, in the experiment on Influenza A virus [4], the result was Active. In the experiment with Influenza A virus [6], the Activity entry is “Dose-dependent effect”. `NC12CC3CC(CC(C3)C1)C2` [AMANTADINE]: in the experiment on Influenza A virus [1], the half-maximal inhibitory concentration (IC50) is over 50 µM.

In the case of `Cc1[nH]nc(-c2ccccc2Cl)c1C(=O)N1CCN(c2ccc([N+](=O)[O-])cc2Cl)CC1`, the concentration for half-maximal inhibition (IC50) with Influenza A virus [1] was 0.72 µM. With `Cc1[nH]nc(-c2ccccc2)c1C(=O)N1CCN(c2ccc([N+](=O)[O-])cc2Cl)CC1`, the 50% inhibitory concentration (IC50) in the experiment with Influenza A virus [1] was determined as 3.38 µM. Take `Cc1nnn(-c2cccc(Cl)c2)c1C(=O)N1CCN(c2ccc([N+](=O)[O-])cc2Cl)CC1`: in the experiment with Influenza A virus [1], the IC50 was 4.89 µM. Still for that read-out and setting: for `COc1ccccc1-n1nnc(C)c1C(=O)N1CCN(c2ccccc2)CC1` the value was over 50 µM; for `Cc1noc(-c2ccccc2)c1C(=O)N1CCN(c2ccc([N+](=O)[O-])cc2Cl)CC1`, 4.83 µM; for `O=C(c1ccccc1-c1ccccc1)N1CCN(c2ccc([N+](=O)[O-])cc2Cl)CC1`, 5.24 µM.

Regarding `Cc1nnn(-c2ccc(Cl)cc2)c1C(=O)N1CCN(c2ccc([N+](=O)[O-])cc2Cl)CC1`, the concentration for half-maximal inhibition (IC50) with Influenza A virus [1] stood at 4.93 µM. On to `CC(=O)c1ccccc1-n1nnc(C)c1C(=O)N1CCN(c2ccc([N+](=O)[O-])cc2Cl)CC1`, for which the 50% inhibitory concentration (IC50) in the experiment with Influenza A virus [1] amounted to 13.7 µM. On the same count and under the same terms, the value for `Cc1nnn(-c2ccccc2)c1C(=O)N1CCN(c2ccc([N+](=O)[O-])cc2Cl)CC1` was 3.13 µM; that for `COc1ccccc1-n1nnc(C)c1C(=O)N1CCN(c2ccc([N+](=O)[O-])cc2)CC1` was 17 µM; that for `COc1ccccc1-c1ccccc1C(=O)N1CCN(c2ccc([N+](=O)[O-])cc2Cl)CC1` was 1.57 µM. Take `Cc1nnn(-c2ccccc2Cl)c1C(=O)N1CCN(c2ccc([N+](=O)[O-])cc2Cl)CC1`: in the experiment with Influenza A virus [1], the 50% inhibitory concentration (IC50) stood at 1.2 µM. In the case of `Cc1ccccc1-n1nnc(C)c1C(=O)N1CCN(c2ccc([N+](=O)[O-])cc2Cl)CC1`, in the experiment with Influenza A virus [1], the half-inhibitory concentration (IC50) was determined as 2.4 µM. As to `Cc1nnn(-c2ccccc2OC(C)C)c1C(=O)N1CCN(c2ccc([N+](=O)[O-])cc2Cl)CC1`, the IC50 in the experiment with Influenza A virus [1] amounted to 8.42 µM.

With `COc1ccccc1-c1onc(C)c1C(=O)N1CCN(c2ccc([N+](=O)[O-])cc2Cl)CC1`, in the experiment on Influenza A virus [1], the IC50 stood at 0.71 µM.

For the molecule `COc1cccc(-n2nnc(C)c2C(=O)N2CCN(c3ccc([N+](=O)[O-])cc3Cl)CC2)c1`, the IC50 in the experiment with Influenza A virus [1] is 5.35 µM. Take `COc1ccccc1-n1nncc1C(=O)N1CCN(c2ccc([N+](=O)[O-])cc2Cl)CC1`: in the experiment with Influenza A virus [1], the IC50 was found to be 8.36 µM.

Regarding `CCc1nnn(-c2ccccc2OC)c1C(=O)N1CCN(c2ccc([N+](=O)[O-])cc2Cl)CC1`, the 50% inhibitory concentration (IC50) in the experiment with Influenza A virus [1] is over 50 µM. As to `COc1ccccc1-n1nnc(C)c1C(=O)N1CCN(c2ccc([N+](=O)[O-])cc2Cl)CC1`, the IC50 is over 50 µM in the experiment on Influenza A virus [2]; 0.23 µM in the experiment with Influenza A virus [3]; 1.4 µM in the experiment on Influenza A virus [5]; 1.11 µM in the experiment on Influenza A virus [7]; 0.68 µM in the experiment on Influenza A virus [1]. Besides, the result with Influenza A virus [4] and in the experiment with Influenza A virus [8] was Active.
